Assays:
[1] = test system: six xenograft mouse models of human cancer; test: Xenograft mouse models of human cancer, combination with ionizing radiation; assay type: in vivo; conditions: all models, oral administration with fractionated radiation 2 Gy x 5
Protocol: (§1) The therapeutic relevance of DNA-PK inhibition by the drug substance as such was investigated in vivo in combination with ionizing radiation (IR), a clinically established DSB-inducing treatment. The drug substance was tested for activity in six xenograft mouse models of human cancer. The models were chosen from different cancer indications (colon, lung, head and neck, pancreatic), and histological subtypes (adeno, squamous, large cell). Ionizing radiation was administered using a fractionated schedule of 2 Gy per day administered over five consecutive days (total radiation dose=10 Gy). […] 10 min prior to each fraction of radiation (ONC397-1-2AZ, ONC397-1-3AZ, ONC397-1-4AZ, ONC397-1-5AZ, ONC397-1-8AZ).
(§2) The radiotherapy enhancing effect was quantified across the tested models by the time to reaching 400% initial volume for the 150 mg/kg study arms. The resulting Kaplan-Meier plots were compared by the log-rank test.

A549 = conditions: 150 mg/kg oral, 10 min prior to each 2 Gy fraction, 5 days (10 Gy)
Protocol: as §1, §2

HCT116 = conditions: 150 mg/kg oral, 10 min prior to each 2 Gy fraction, 5 days (10 Gy)
Protocol: as §1, §2

NCI-H460 = conditions: 150 mg/kg oral, 10 min prior to each 2 Gy fraction, 5 days (10 Gy)
Protocol: as §1, §2

[2] = Solubility of drug substance in water and simulated gastric fluids; assay type: physicochemical
[3] = target: DNA-dependent protein kinase (DNA-PK) (Homo sapiens, UniProt P78527); conditions: cited from earlier work
[4] = test system: DNA-PK autophosphorylation in cancer cell lines; conditions: cited from earlier work

Structure (SMILES): COc1ccc([C@@H](O)c2cc(-c3ncnc4cc(N5CCOCC5)ccc34)c(F)cc2Cl)nn1 [drug substance, (S)-[2-chloro-4-fluoro-5-(7-morpholin-4-yl-quinazolin-4-yl)phenyl]-(6-methoxy-pyridazin-3-yl)methanol]
- enhancement of the radiation effect [1]: strong enhancement of the radiation effect
- enhancement ratio (time to reaching 400% initial volume) (A549): 1.5
- enhancement ratio (time to reaching 400% initial volume) (HCT116): 1.5
- enhancement ratio (time to reaching 400% initial volume) (NCI-H460): 2.6
- solubility in water and simulated gastric fluids [2]: poor solubility
- inhibition of DNA-PK activity [3]: potent and selective inhibitor
- inhibition of DNA-PK autophosphorylation [4]: potent inhibition
